Among the targets are HLA DRB1*0405 (Homo sapiens, UniProt P01903+P01911, A100R/A169T/D86S/F76Y/I96L/K127E/L162R/M171V/N62H/P40V/Q125Y/R42H/S133A/S149N/S66Y/V115G/V209L/W38E); HLA DRB1*0101 (Homo sapiens, UniProt P01903+P01911, A100R/D57E/F55L/F60I/F76Y/I96L/L162R/M171V/P40L/Q125E/R42F/V115G/Y59C); HLA DRB1*0301 (Homo sapiens, UniProt P01903+P01911, A100K/A102G/A103R/A169T/F55Y/I96L/K41T/L162R/M171V/P40S/Q125H/Q178H/Q39Y/R42S/S66N/T106N/T262R/W38E/Y61H); HLA DRB3*0101 (Homo sapiens, UniProt P01903+P79483); HLA DRB1*1101 (Homo sapiens, UniProt P01903+P01911, A100R/A169T/A87E/I96F/K41T/L162R/M171V/P40S/Q125H/Q178H/Q39Y/Q99D/R42S/S66Y/T262R/V115G/W38E); HLA DRB1*0401 (Homo sapiens, UniProt P01903+P01911, A100K/A169T/F76Y/I96L/K127E/L162R/M171V/N62H/P40V/Q125Y/R42H/S133A/S149N/S66Y/V115G/V209L/W38E); HLA DRB1*0404 (Homo sapiens, UniProt P01903+P01911, A100R/A169T/F76Y/I96L/K127E/L162R/M171V/N62H/P40V/Q125Y/R42H/S133A/S149N/S66Y/V209L/W38E); HLA DRB1*1302 (Homo sapiens, UniProt P01903+P01911, A100E/A169T/K41T/L162R/M171V/P40S/Q125H/Q178H/Q39Y/Q99D/R42S/S66N/T262R/V115G/W38E/Y61H); HLA DRB1*0701 (Homo sapiens, UniProt P01903+P01911, A100R/A102G/A103Q/D57E/D86V/E43K/F76Y/K127E/L162R/M171V/P40G/Q125H/Q99D/R33Q/R42Y/R54Q/S133A/S66F/T210M/V115G/Y107V/Y59L/Y89S); HLA DRB1*1501 (Homo sapiens, UniProt P01903+P01911).

What all share (assay): In vitro HLA-DR peptide binding assay

Where no end group is shown, it is not given here.

Chain of HLA DRB1*1101 (P01903 26-254 limits assumed, other chains not shown): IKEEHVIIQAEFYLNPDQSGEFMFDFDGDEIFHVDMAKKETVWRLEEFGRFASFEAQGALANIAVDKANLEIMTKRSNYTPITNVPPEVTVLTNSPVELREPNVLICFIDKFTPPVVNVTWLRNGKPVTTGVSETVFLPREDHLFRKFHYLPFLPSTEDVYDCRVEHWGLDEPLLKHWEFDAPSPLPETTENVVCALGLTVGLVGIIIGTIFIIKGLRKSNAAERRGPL
Chain of HLA DRB1*0301 (P01903 26-254 limits assumed, other chains not shown): as above
Chain of HLA DRB1*1302 (P01903 26-254 limits assumed, other chains not shown): as above

Broadly, the IC50 is the point on the concentration scale where inhibition reaches its midpoint. A higher IC50 goes with lower potency. Turning to HAPAAPANPGLI [34.1], the half-inhibitory concentration (IC50) is above 5 µM at HLA DRB1*0405; 3.55 µM on HLA DRB1*0101; above 5 µM on HLA DRB1*0301; above 5 µM at HLA DRB3*0101; above 5 µM on HLA DRB1*1101; above 5 µM at HLA DRB1*0401. Moreover, the IC50 on HLA DRB1*0404, on HLA DRB1*1302, at HLA DRB1*0701 and at HLA DRB1*1501 was above 5 µM in each case.

With `CC(C)C[C@H](NC(=O)[C@H](C)NC(=O)[C@H](CO)NC(=O)[C@H](CC(=O)O)NC(=O)[C@H](CCC(=O)O)NC(=O)[C@@H]1CCCN1)C(=O)N[C@@H](CC(C)C)C(=O)N[C@@H](CCC(=O)O)C(=O)N[C@@H](CC(=O)O)C(=O)N1CCC[C@H]1C(=O)N[C@@H](C)C(=O)NCC(=O)O` [30.8], the IC50 at HLA DRB1*0405 was above 5 µM; on HLA DRB1*0101 it was above 5 µM; at HLA DRB1*0301, above 5 µM; on HLA DRB3*0101 it was 2.05 µM; on HLA DRB1*1101, above 5 µM; at HLA DRB1*0401, above 5 µM. The IC50 on HLA DRB1*0404, at HLA DRB1*1302, at HLA DRB1*0701 and at HLA DRB1*1501 was above 5 µM each time.

In the case of DPEDSALLEDPA [30.7], the half-maximal inhibitory concentration (IC50) at HLA DRB1*0405 was above 5 µM; on HLA DRB1*0101, above 5 µM; on HLA DRB1*0301 it was above 5 µM; on HLA DRB3*0101, 1.62 µM; on HLA DRB1*1101 it was above 5 µM; on HLA DRB1*0401, above 5 µM. The IC50 at HLA DRB1*0404, at HLA DRB1*1302, at HLA DRB1*0701 and on HLA DRB1*1501 was above 5 µM each time.

Regarding AYQQGVTVDSIG [24.2], the IC50 on HLA DRB1*0405 is above 5 µM; at HLA DRB1*0101, 0.471 µM; at HLA DRB1*0301 it was above 5 µM; at HLA DRB3*0101, above 5 µM; at HLA DRB1*1101 it was above 5 µM; at HLA DRB1*0401 it was 0.212 µM. The 50% inhibitory concentration (IC50) at HLA DRB1*0404 was above 5 µM; at HLA DRB1*1302, above 5 µM; at HLA DRB1*0701, 2.72 µM; on HLA DRB1*1501 it was above 5 µM.

As to YQQGVTVDSIGM [24.3], the IC50 at HLA DRB1*0405 was above 5 µM; at HLA DRB1*0101, above 5 µM; at HLA DRB1*0301 it was above 5 µM; on HLA DRB3*0101 it was above 5 µM; at HLA DRB1*1101 it was above 5 µM; on HLA DRB1*0401, 4.41 µM. Further, the concentration for half-maximal inhibition (IC50) is above 5 µM on HLA DRB1*0404, above 5 µM on HLA DRB1*1302, 0.389 µM on HLA DRB1*0701 and above 5 µM on HLA DRB1*1501.

Take APAAPANPGLII [34.2]: the IC50 at HLA DRB1*0405 is above 5 µM; at HLA DRB1*0101, 1.27 µM; at HLA DRB1*0301 it was above 5 µM; at HLA DRB3*0101, above 5 µM; at HLA DRB1*1101, above 5 µM; on HLA DRB1*0401, above 5 µM. The IC50 on HLA DRB1*0404 is above 5 µM; on HLA DRB1*1302, 0.642 µM; at HLA DRB1*0701, above 5 µM; on HLA DRB1*1501 it was above 5 µM.
